# Assay results: patent publication US20060128715A1, “Oxime derivative hydroxyethylamine aspartyl-protease inhibitors” (priority 2004, published 2006)
# “And” between values parts separate entries of the source, which are not always exact repeats. Equal values may be shown once.
# Legend:
# [1] = system: cathepsin D (catD) versus beta-secretase (BACE); assay: Selectivity for BACE versus catD (ratio of IC50 values); assay type: biochemical; conditions: each value is an average of four experimental runs; multiple values = more than one experiment
# Description: (§1) Selectivity was calculated as a ratio of inhibition (IC50) values in which the inhibition of beta-secretase was compared to the inhibition of other aspartyl proteases.
# In the following examples, each value is an average of four experimental runs and multiple values for one compound indicate that more than one experiment was conducted.
# [2] = system: cathepsin E (catE) versus beta-secretase (BACE); assay: Selectivity for BACE versus catE (ratio of IC50 values); assay type: biochemical; conditions: multiple values = more than one experiment
# Description: as §1
# Selectivity is reported as the ratio of IC50(catE):IC50(BACE).
SMILES,Selectivity IC50(catD)/IC50(BACE) [1],Selectivity IC50(catE)/IC50(BACE) [2]
"CC(C)(C)c1cccc(C2(NCC(O)C(Cc3cc(F)cc(F)c3)NS(C)(=O)=O)CCc3n[nH]cc3C2)c1 (single isomer, unassigned) [Example 50-15]",25.4,–
"CC(C)(C)c1cccc(C2(NCC(O)C(Cc3cc(F)cc(F)c3)NS(C)(=O)=O)CCc3n[nH]cc3C2)c1 (single isomer, unassigned) [Example 50-16]",2.7,–
"Cn1cc2c(n1)CCC(NCC(O)C(Cc1cc(F)cc(F)c1)NS(C)(=O)=O)(c1cccc(C(C)(C)C)c1)C2 (single isomer, unassigned) [Example 50-18]",11.0,–
"CC(C)(C)c1cccc(C2(NCC(O)C(Cc3cc(F)cc(F)c3)NC(=O)CF)CCc3n[nH]cc3C2)c1 (single isomer, unassigned) [Example 50-26]",17.8,–
"CC(C)(C)c1cccc(C2(NCC(O)C(Cc3cc(F)cc(F)c3)NC(=O)CF)CCc3n[nH]cc3C2)c1 (single isomer, unassigned) [Example 50-27]",7.8,–
"CC(C)(C)c1cccc(C2(NCC(O)C(Cc3cc(F)cc(F)c3)NS(C)(=O)=O)CCc3n[nH]cc3C2)c1 (single isomer, unassigned) [Example 51-18]",–,23.2
"CC(C)(C)c1cccc(C2(NCC(O)C(Cc3cc(F)cc(F)c3)NS(C)(=O)=O)CCc3n[nH]cc3C2)c1 (single isomer, unassigned) [Example 51-19]",–,5.8
CON=C1CCC(NCC(O)C(Cc2cc(F)cc(F)c2)NC(C)=O)(c2cccc(C(C)(C)C)c2)CC1 (stereo not drawn) [Example 50-2],15.9 and 18.3,–
CCON=C1CCC(NCC(O)C(Cc2cc(F)cc(F)c2)NC(C)=O)(c2cccc(C(C)(C)C)c2)CC1 (stereo not drawn) [Example 50-3],1.8,–
CC(=O)NC(Cc1cc(F)cc(F)c1)C(O)CNC1(c2cccc(C(C)(C)C)c2)CCC(=NOCCO)CC1 (stereo not drawn) [Example 50-4],2.3 and 2.5,–
CC(=O)NC(Cc1cc(F)cc(F)c1)C(O)CNC1(c2cccc(C(C)(C)C)c2)CCc2nn(C(C)=O)cc2C1 (stereo not drawn) [Example 50-12],11.1,–
CC(=O)NC(Cc1cc(F)cc(F)c1)C(O)CNC1(c2cccc(C(C)(C)C)c2)CCC(=CC#N)CC1 (stereo not drawn) [Example 50-14],1.9,–
CC(=O)NC(Cc1cc(F)cc(F)c1)C(O)CNC1(c2cccc(-c3ccsc3)c2)CCc2nn(C)cc2C1 (stereo not drawn) [Example 50-17],1.1,–
CC(=O)NC(Cc1cc(F)cc(F)c1)C(O)CNC1(c2cccc(-c3ccoc3)c2)CCc2nn(C)cc2C1 (stereo not drawn) [Example 50-19],1.8,–
CC(=O)NC(Cc1ccccc1)C(O)CNC1(c2cccc(C(C)(C)C)c2)CCc2n[nH]cc2C1 (stereo not drawn) [Example 50-20],19.1,–
Cn1cc2c(n1)CCC(NCC(O)C(Cc1cc(F)cc(F)c1)NC(=O)CF)(c1cccc(C(C)(C)C)c1)C2 (stereo not drawn) [Example 50-22],2.0,–
CC(=O)NC(Cc1cc(F)cc(F)c1)C(O)CNC1(c2cccs2)CCc2n[nH]cc2C1 (stereo not drawn) [Example 50-23],4.5,–
CC(=O)NC(Cc1cc(F)cc(F)c1)C(O)CNC1(c2cc(CC(C)(C)C)cs2)CCc2n[nH]cc2C1 (stereo not drawn) [Example 50-24],5.9 and 7.0,–
CC(C)(C)c1cccc(C2(NCC(O)C(Cc3cc(F)cc(F)c3)NC(=O)CF)CCc3n[nH]cc3C2)c1 (stereo not drawn) [Example 50-25],8.5,–
CC(=O)NC(Cc1cc(F)cc(F)c1)C(O)CNC1(c2cccc(C(C)(C)C)c2)CCc2nn(C)cc2C1 (stereo not drawn) [Example 50-28],2.8,–
CC(=O)NC(CC(C)C)C(O)CNC1(c2cccc(C(C)(C)C)c2)CCc2n[nH]cc2C1 (stereo not drawn) [Example 50-29],16.3,–
CON=C1CCC(NCC(O)C(Cc2cc(F)cc(F)c2)NC(C)=O)(c2cccc(C(C)(C)C)c2)CC1 (stereo not drawn) [Example 51-2],–,9.3 and 10.4
CCON=C1CCC(NCC(O)C(Cc2cc(F)cc(F)c2)NC(C)=O)(c2cccc(C(C)(C)C)c2)CC1 (stereo not drawn) [Example 51-3],–,3.3
CC(=O)NC(Cc1cc(F)cc(F)c1)C(O)CNC1(c2cccc(C(C)(C)C)c2)CCc2nn(C(C)=O)cc2C1 (stereo not drawn) [Example 51-12],–,8.4
C=C1CCC(NCC(O)C(Cc2cc(F)cc(F)c2)NC(C)=O)(c2cccc(C(C)(C)C)c2)CC1 (stereo not drawn) [Example 51-14],–,1.9
CC(=O)NC(Cc1cc(F)cc(F)c1)C(O)CNC1(c2cccc(C(C)(C)C)c2)CCC(=CC#N)CC1 (stereo not drawn) [Example 51-17],–,3.9
CC(=O)NC(Cc1cc(F)cc(F)c1)C(O)CNC1(c2cccc(-c3ccsc3)c2)CCc2nn(C)cc2C1 (stereo not drawn) [Example 51-20],–,1.1
Cn1cc2c(n1)CCC(NCC(O)C(Cc1cc(F)cc(F)c1)NS(C)(=O)=O)(c1cccc(C(C)(C)C)c1)C2 (stereo not drawn) [Example 51-21],–,4.8
CC(=O)NC(Cc1cc(F)cc(F)c1)C(O)CNC1(c2cccc(-n3cccn3)c2)CCc2nn(C)cc2C1 (stereo not drawn) [Example 51-22],–,1.8
CC(=O)NC(Cc1cc(F)cc(F)c1)C(O)CNC1(c2cccc(C(C)(C)C)c2)CCc2nn(C)cc2C1 (stereo not drawn) [Example 51-23],–,1.8
